Here are results for 1 molecule from patent EP1198477B1, “PROLACTIN-RELEASING PEPTIDE AND USE IN TREATING PAIN” (Oy Juvantia Pharma Ltd, priority 1999, dated 2001).

The test system of the assay is Rats. As to the kind of experiment: Blood pressure measurements after i.v. injections. The format is in vivo. To be noted: in the same animals, dose not stated.

Structures are written as SMILES.

Regarding `CNC[C@H](O)c1cccc(O)c1` [phenylephrine], the arterial pressure result is reported as “clear increase in pressure”.
